Measurements taken from ChEMBL document CHEMBL3885881, “DrugMatrix”.

Species: Rattus norvegicus
Assay: DrugMatrix - Regimen: Daily Repeat
Assay type: toxicity, organism-based, Sprague-Dawley
Parameters: regimen Daily Repeat, gender Male, age 6-8 weeks
Conditions: in vivo, sc, route subcutaneous, […]; for ABSOLUTE BASOPHIL / ABSOLUTE EOSINOPHIL / ABSOLUTE LYMPHOCYTE / ABSOLUTE MONOCYTE / ABSOLUTE SEGMENTED NEUTROPHIL / BASOPHIL / EOSINOPHIL / ERYTHROCYTE COUNT / HEMATOCRIT / HEMOGLOBIN / LEUKOCYTE COUNT / LYMPHOCYTE / MEAN CORPUSCULAR HEMOGLOBIN / MEAN CORPUSCULAR HEMOGLOBIN CONCENTRATION / MEAN CORPUSCULAR VOLUME / MONOCYTE / NEUTROPHIL / NUCLEATED RED BLOOD CELLS / PLATELET COUNT: tissue Blood; for ALANINE AMINOTRANSFERASE / ALBUMIN / ALKALINE PHOSPHATASE / ASPARTATE AMINOTRANSFERASE / BLOOD UREA NITROGEN / CARBON DIOXIDE / CHLORIDE / CHOLESTEROL / CREATINE PHOSPHOKINASE / CREATININE / GLUCOSE / LACTATE DEHYDROGENASE / LIPASE / PHOSPHORUS / POTASSIUM / SODIUM / TOTAL BILIRUBIN / TOTAL PROTEIN / URIC ACID: tissue Plasma
[1] = 29 mg/kg, 120 h, dose level Low, time 5 day
[2] = 1200 mg/kg, 72 h, dose level High, time 3 day
[3] = 1200 mg/kg, 120 h, dose level High, time 5 day

Nc1nc2c(ncn2CCC(CO)CO)c(=O)[nH]1 [PENCICLOVIR]
ABSOLUTE BASOPHIL [1]: 0 CELLS/uL
ABSOLUTE EOSINOPHIL [1]: 0 CELLS/uL
ABSOLUTE LYMPHOCYTE [1]: 9185.33 CELLS/uL
ABSOLUTE MONOCYTE [1]: 38 CELLS/uL
ABSOLUTE SEGMENTED NEUTROPHIL [1]: 2710 CELLS/uL
BASOPHIL [1]: 0%
EOSINOPHIL [1]: 0%
ERYTHROCYTE COUNT [1]: 5.6 x10E6/uL
HEMATOCRIT [1]: 35.77%
HEMOGLOBIN [1]: 13.33 G/DL
LEUKOCYTE COUNT [1]: 11.93 x10E3/uL
LYMPHOCYTE [1]: 77%
MEAN CORPUSCULAR HEMOGLOBIN [1]: 23.83 pg
MEAN CORPUSCULAR HEMOGLOBIN CONCENTRATION [1]: 37.27 G/DL
MEAN CORPUSCULAR VOLUME [1]: 63.8 fL
MONOCYTE [1]: 0.33%
NEUTROPHIL [1]: 22.67%
NUCLEATED RED BLOOD CELLS [1]: 0 /100WBC
PLATELET COUNT [1]: 979 x10E3/uL
ALANINE AMINOTRANSFERASE [1]: 64 u/L
ALBUMIN [1]: 3.9 G/DL
ALKALINE PHOSPHATASE [1]: 325.67 u/L
ASPARTATE AMINOTRANSFERASE [1]: 95 u/L
BLOOD UREA NITROGEN [1]: 19 mg/dL
CARBON DIOXIDE [1]: 24.67 mmol/L
CHLORIDE [1]: 105.33 MEQ/L
CHOLESTEROL [1]: 96.67 mg/dL
CREATINE PHOSPHOKINASE [1]: 520.33 u/L
CREATININE [1]: 0.18 mg/dL
GLUCOSE [1]: 168.33 mg/dL
LACTATE DEHYDROGENASE [1]: 141.67 u/L
LIPASE [1]: 8 u/L
PHOSPHORUS [1]: 14.77 mg/dL
POTASSIUM [1]: 6.25 MEQ/L
SODIUM [1]: 144.77 MEQ/L
TOTAL BILIRUBIN [1]: 0.17 mg/dL
TOTAL PROTEIN [1]: 5.7 G/DL
URIC ACID [1]: 1.5 mg/dL
ABSOLUTE BASOPHIL [2]: 0 CELLS/uL
ABSOLUTE EOSINOPHIL [2]: 107.33 CELLS/uL
ABSOLUTE LYMPHOCYTE [2]: 7265 CELLS/uL
ABSOLUTE MONOCYTE [2]: 87 CELLS/uL
ABSOLUTE SEGMENTED NEUTROPHIL [2]: 974 CELLS/uL
BASOPHIL [2]: 0%
EOSINOPHIL [2]: 1.33%
ERYTHROCYTE COUNT [2]: 4.97 x10E6/uL
HEMATOCRIT [2]: 30.73%
HEMOGLOBIN [2]: 11.67 G/DL
LEUKOCYTE COUNT [2]: 8.43 x10E3/uL
LYMPHOCYTE [2]: 86.33%
MEAN CORPUSCULAR HEMOGLOBIN [2]: 23.43 pg
MEAN CORPUSCULAR HEMOGLOBIN CONCENTRATION [2]: 37.97 G/DL
MEAN CORPUSCULAR VOLUME [2]: 61.77 fL
MONOCYTE [2]: 1%
NEUTROPHIL [2]: 11.33%
NUCLEATED RED BLOOD CELLS [2]: 0.33 /100WBC
PLATELET COUNT [2]: 1398.33 x10E3/uL
ALANINE AMINOTRANSFERASE [2]: 36 u/L
ALBUMIN [2]: 3.13 G/DL
ALKALINE PHOSPHATASE [2]: 311.67 u/L
ASPARTATE AMINOTRANSFERASE [2]: 64.33 u/L
BLOOD UREA NITROGEN [2]: 12.33 mg/dL
CARBON DIOXIDE [2]: 28 mmol/L
CHLORIDE [2]: 105.5 MEQ/L
CHOLESTEROL [2]: 58.33 mg/dL
CREATINE PHOSPHOKINASE [2]: 201.33 u/L
CREATININE [2]: 0.19 mg/dL
GLUCOSE [2]: 132.67 mg/dL
LACTATE DEHYDROGENASE [2]: 105.67 u/L
LIPASE [2]: 6.5 u/L
PHOSPHORUS [2]: 10.63 mg/dL
POTASSIUM [2]: 5.8 MEQ/L
SODIUM [2]: 147.5 MEQ/L
TOTAL BILIRUBIN [2]: 0.0667 mg/dL
TOTAL PROTEIN [2]: 5.97 G/DL
URIC ACID [2]: 0.93 mg/dL
ABSOLUTE BASOPHIL [3]: 0 CELLS/uL
ABSOLUTE EOSINOPHIL [3]: 219.33 CELLS/uL
ABSOLUTE LYMPHOCYTE [3]: 14998.67 CELLS/uL
ABSOLUTE MONOCYTE [3]: 280 CELLS/uL
ABSOLUTE SEGMENTED NEUTROPHIL [3]: 5502 CELLS/uL
BASOPHIL [3]: 0%
EOSINOPHIL [3]: 1%
ERYTHROCYTE COUNT [3]: 4.92 x10E6/uL
HEMATOCRIT [3]: 30.6%
HEMOGLOBIN [3]: 11.77 G/DL
LEUKOCYTE COUNT [3]: 21 x10E3/uL
LYMPHOCYTE [3]: 71.33%
MEAN CORPUSCULAR HEMOGLOBIN [3]: 23.97 pg
MEAN CORPUSCULAR HEMOGLOBIN CONCENTRATION [3]: 38.47 G/DL
MEAN CORPUSCULAR VOLUME [3]: 62.2 fL
MONOCYTE [3]: 1.33%
NEUTROPHIL [3]: 26.33%
NUCLEATED RED BLOOD CELLS [3]: 0 /100WBC
PLATELET COUNT [3]: 2260.33 x10E3/uL
ALANINE AMINOTRANSFERASE [3]: 31.33 u/L
ALBUMIN [3]: 2.63 G/DL
ALKALINE PHOSPHATASE [3]: 297.33 u/L
ASPARTATE AMINOTRANSFERASE [3]: 73.67 u/L
BLOOD UREA NITROGEN [3]: 22 mg/dL
CARBON DIOXIDE [3]: 25.33 mmol/L
CHLORIDE [3]: 103 MEQ/L
CHOLESTEROL [3]: 52 mg/dL
CREATINE PHOSPHOKINASE [3]: 232.33 u/L
CREATININE [3]: 0.34 mg/dL
GLUCOSE [3]: 147 mg/dL
LACTATE DEHYDROGENASE [3]: 216.33 u/L
LIPASE [3]: 6.67 u/L
PHOSPHORUS [3]: 12 mg/dL
POTASSIUM [3]: 6.2 MEQ/L
SODIUM [3]: 143.07 MEQ/L
TOTAL BILIRUBIN [3]: 0.1 mg/dL
TOTAL PROTEIN [3]: 5.73 G/DL
URIC ACID [3]: 2.3 mg/dL
